Source: ChEMBL document CHEMBL2203078, “Identification of amides as carboxylic Acid surrogates for quinolizidinone-based m1 positive allosteric modulators” (ACS Med Chem Lett, 2012)
Active and inactive are the calls of the source. The rule behind the calls is not given here.

Tests used:
Format in all cases: functional, cell-based
[1] = biological target: T1, Muscarinic acetylcholine receptor M4 (Homo sapiens) (UniProt P08173); experiment: Activity at muscarinic M4 receptor expressing in CHONFAT cells assessed as potentiation of acetylcholine-induced calcium mobilization preincubated for 4 mins and measured 4 mins after acetylcholine stimulation by FLIPR assay
T1 sequence (whole entry): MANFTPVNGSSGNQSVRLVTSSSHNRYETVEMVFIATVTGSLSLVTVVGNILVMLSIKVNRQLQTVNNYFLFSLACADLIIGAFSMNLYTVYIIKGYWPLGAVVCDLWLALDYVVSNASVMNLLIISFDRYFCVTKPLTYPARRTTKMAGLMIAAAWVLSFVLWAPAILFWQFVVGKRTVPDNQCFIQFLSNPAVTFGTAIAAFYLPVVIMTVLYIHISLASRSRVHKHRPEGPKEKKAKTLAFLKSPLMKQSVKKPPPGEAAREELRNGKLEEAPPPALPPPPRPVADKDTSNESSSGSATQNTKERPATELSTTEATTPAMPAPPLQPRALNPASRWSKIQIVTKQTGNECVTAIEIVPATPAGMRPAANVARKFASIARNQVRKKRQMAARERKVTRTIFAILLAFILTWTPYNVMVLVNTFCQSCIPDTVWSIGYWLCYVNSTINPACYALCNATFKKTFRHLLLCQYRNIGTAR

[2] = biological target: Muscarinic acetylcholine receptor M3 (Homo sapiens) (UniProt P20309); experiment: Activity at muscarinic M3 receptor expressing in CHONFAT cells assessed as potentiation of acetylcholine-induced calcium mobilization preincubated for 4 mins and measured 4 mins after acetylcholine stimulation by FLIPR assay
[3] = biological target: T2, Muscarinic acetylcholine receptor M2 (Homo sapiens) (UniProt P08172); experiment: Activity at muscarinic M2 receptor expressing in CHONFAT cells assessed as potentiation of acetylcholine-induced calcium mobilization preincubated for 4 mins and measured 4 mins after acetylcholine stimulation by FLIPR assay
T2 sequence (whole entry): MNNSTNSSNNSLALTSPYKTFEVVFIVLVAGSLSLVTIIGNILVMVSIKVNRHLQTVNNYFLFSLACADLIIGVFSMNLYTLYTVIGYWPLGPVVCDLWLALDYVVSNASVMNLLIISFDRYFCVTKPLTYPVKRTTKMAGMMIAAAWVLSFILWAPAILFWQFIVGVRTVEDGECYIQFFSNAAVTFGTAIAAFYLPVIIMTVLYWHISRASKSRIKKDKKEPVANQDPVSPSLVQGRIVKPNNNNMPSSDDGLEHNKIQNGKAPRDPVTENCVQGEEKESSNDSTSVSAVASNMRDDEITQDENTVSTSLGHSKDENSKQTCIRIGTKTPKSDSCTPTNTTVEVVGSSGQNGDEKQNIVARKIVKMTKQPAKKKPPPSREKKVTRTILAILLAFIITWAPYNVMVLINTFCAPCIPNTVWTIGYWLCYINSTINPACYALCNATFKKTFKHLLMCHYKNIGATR

[4] = biological target: T3, Muscarinic acetylcholine receptor M1 (Homo sapiens) (UniProt P11229); experiment: Positive allosteric modulation of human muscarinic M1 receptor expressing in CHONFAT cells assessed as potentiation of acetylcholine-induced calcium mobilization preincubated for 4 mins and measured 4 mins after acetylcholine stimulation by FLIPR assay
T3 sequence (whole entry): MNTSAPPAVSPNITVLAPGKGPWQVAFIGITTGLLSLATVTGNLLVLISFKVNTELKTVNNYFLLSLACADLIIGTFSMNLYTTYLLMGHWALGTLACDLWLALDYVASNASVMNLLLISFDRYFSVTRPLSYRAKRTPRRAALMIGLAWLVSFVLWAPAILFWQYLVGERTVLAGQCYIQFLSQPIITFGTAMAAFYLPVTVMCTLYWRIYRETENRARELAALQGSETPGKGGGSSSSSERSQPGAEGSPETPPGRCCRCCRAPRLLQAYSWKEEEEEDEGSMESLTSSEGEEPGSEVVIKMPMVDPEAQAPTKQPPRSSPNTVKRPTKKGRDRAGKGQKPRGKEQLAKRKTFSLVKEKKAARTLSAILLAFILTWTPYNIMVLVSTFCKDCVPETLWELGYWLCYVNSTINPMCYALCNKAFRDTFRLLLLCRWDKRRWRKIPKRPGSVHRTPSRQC

Sequence of Muscarinic acetylcholine receptor M3 (Homo sapiens) (P20309 whole entry, looked up): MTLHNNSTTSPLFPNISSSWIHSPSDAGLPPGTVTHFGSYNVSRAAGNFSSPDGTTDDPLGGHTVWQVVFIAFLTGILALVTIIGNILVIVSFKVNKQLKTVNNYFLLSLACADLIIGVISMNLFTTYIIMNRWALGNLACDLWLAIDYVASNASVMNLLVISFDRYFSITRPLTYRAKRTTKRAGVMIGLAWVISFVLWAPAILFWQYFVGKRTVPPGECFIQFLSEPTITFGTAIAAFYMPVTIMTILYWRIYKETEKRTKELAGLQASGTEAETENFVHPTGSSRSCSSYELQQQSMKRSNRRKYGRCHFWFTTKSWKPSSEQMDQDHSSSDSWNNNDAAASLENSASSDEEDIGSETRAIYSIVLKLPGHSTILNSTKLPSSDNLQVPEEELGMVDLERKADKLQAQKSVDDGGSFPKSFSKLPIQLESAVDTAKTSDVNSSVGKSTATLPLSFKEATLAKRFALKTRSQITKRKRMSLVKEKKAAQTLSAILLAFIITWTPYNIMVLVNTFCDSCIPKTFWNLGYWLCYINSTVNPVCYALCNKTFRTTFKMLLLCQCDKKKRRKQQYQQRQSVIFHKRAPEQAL

Row | Structure (SMILES) | Activity [1] | Activity [2] | Activity [3] | IP [4]
1 | C[C@H]1CCCC[C@@H]1NC(=O)c1cc(CN2CCC(C#N)(c3ccccn3)CC2)c2ccccn2c1=O | inactive | inactive | inactive | 190 nM
2 | N#CC1(c2ccccn2)CCN(Cc2cc(C(=O)NC3CC3)c(=O)n3ccccc23)CC1 | inactive | inactive | inactive | 2200 nM
3 | COc1ccc(Cn2cc(C(=O)NC3CCCCC3)c(=O)c3ccccc32)cc1 | inactive | inactive | inactive | 14000 nM
4 | C[C@@]1(O)CCCC[C@H]1NC(=O)c1cc(CN2CCC(C#N)(c3ccccn3)CC2)c2ccccn2c1=O | inactive | inactive | inactive | 93 nM
5 | N#CC1(c2ccccn2)CCN(Cc2cc(C(=O)NC3CCCOC3)c(=O)n3ccccc23)CC1 (stereo unspecified) | inactive | inactive | inactive | 2600 nM
6 | N#CC1(c2ccccn2)CCN(Cc2cc(C(=O)NC3CCCCCC3)c(=O)n3ccccc23)CC1 | inactive | inactive | inactive | 304 nM
7 | CNC(=O)c1cc(CN2CCC(C#N)(c3ccccn3)CC2)c2ccccn2c1=O | inactive | inactive | inactive | 4300 nM
8 | N#CC1(c2ccccn2)CCN(Cc2cc(C(=O)NC3CCC3)c(=O)n3ccccc23)CC1 | inactive | inactive | inactive | 980 nM
9 | COc1ccc(Cn2cc(C(=O)Nc3ccccc3C)c(=O)c3ccccc32)cc1 | inactive | inactive | inactive | 23000 nM
10 | Cn1cc(NC(=O)c2cc(CN3CCC(C#N)(c4ccccn4)CC3)c3ccccn3c2=O)nn1 | inactive | inactive | inactive | 1300 nM
11 | N#CC1(c2ccccn2)CCN(Cc2cc(C(=O)N[C@@H]3CCCC[C@H]3O)c(=O)n3ccccc23)CC1 | inactive | inactive | inactive | 220 nM

Second part, the molecule after the results:

Row | Activity [1] | Activity [2] | Activity [3] | IP [4] | Structure (SMILES)
12 | inactive | inactive | inactive | 1900 nM | N#CC1(c2ccccn2)CCN(Cc2cc(C(N)=O)c(=O)n3ccccc23)CC1
13 | inactive | inactive | inactive | 640 nM | N#CC1(c2ccccn2)CCN(Cc2cc(C(=O)Nc3ccccn3)c(=O)n3ccccc23)CC1
14 | inactive | inactive | inactive | 23000 nM | N#CC1(c2ccccn2)CCN(Cc2cc(C(=O)N3CCCC3)c(=O)n3ccccc23)CC1
15 | inactive | inactive | inactive | 381 nM | CO[C@H]1CCCC[C@@H]1NC(=O)c1cc(CN2CCC(C#N)(c3ccccn3)CC2)c2ccccn2c1=O
16 | inactive | inactive | inactive | 7800 nM | N#CC1(c2ccccn2)CCN(Cc2cc(C(=O)N3CCCc4ccccc43)c(=O)n3ccccc23)CC1
17 | inactive | inactive | inactive | 344 nM | N#CC1(c2ccccn2)CCN(Cc2cc(C(=O)NC3CCSCC3)c(=O)n3ccccc23)CC1
18 | inactive | inactive | inactive | 4400 nM | CN(C(=O)c1cc(CN2CCC(C#N)(c3ccccn3)CC2)c2ccccn2c1=O)C1CCOCC1
19 | inactive | inactive | inactive | 780 nM | N#CC1(c2ccccn2)CCN(Cc2cc(C(=O)NC3CCCC3)c(=O)n3ccccc23)CC1
